Here are results for one molecule from ChEMBL document CHEMBL2440060, “Identification of a Novel and Selective Series of Itk Inhibitors via a Template-Hopping Strategy” (ACS Med Chem Lett, 2013).

For test [1], the target named is T1, Tyrosine-protein kinase Tec (Homo sapiens, UniProt P42680).
T1 sequence (P42680 whole entry): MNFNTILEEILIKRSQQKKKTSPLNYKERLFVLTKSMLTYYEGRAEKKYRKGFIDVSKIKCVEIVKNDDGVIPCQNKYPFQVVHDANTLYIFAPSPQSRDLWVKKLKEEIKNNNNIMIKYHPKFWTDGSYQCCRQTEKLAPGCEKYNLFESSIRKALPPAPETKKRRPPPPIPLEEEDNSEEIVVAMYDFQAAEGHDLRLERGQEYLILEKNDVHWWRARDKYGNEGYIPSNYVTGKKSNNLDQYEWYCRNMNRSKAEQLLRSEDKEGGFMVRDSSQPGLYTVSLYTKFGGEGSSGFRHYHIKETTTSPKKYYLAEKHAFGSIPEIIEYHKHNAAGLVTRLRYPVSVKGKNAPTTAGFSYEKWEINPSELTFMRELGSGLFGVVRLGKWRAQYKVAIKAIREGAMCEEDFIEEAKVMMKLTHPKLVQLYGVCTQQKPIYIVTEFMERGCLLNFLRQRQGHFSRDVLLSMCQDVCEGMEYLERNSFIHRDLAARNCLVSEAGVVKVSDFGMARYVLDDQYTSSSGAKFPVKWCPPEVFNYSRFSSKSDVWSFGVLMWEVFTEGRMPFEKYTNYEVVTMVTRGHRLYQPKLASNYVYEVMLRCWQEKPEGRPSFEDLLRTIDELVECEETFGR
The experiment in a line: Inhibition of Tec (unknown origin).

Test [2] addresses T2, Tyrosine-protein kinase TXK (Homo sapiens, UniProt P42681).
T2 sequence (P42681 whole entry): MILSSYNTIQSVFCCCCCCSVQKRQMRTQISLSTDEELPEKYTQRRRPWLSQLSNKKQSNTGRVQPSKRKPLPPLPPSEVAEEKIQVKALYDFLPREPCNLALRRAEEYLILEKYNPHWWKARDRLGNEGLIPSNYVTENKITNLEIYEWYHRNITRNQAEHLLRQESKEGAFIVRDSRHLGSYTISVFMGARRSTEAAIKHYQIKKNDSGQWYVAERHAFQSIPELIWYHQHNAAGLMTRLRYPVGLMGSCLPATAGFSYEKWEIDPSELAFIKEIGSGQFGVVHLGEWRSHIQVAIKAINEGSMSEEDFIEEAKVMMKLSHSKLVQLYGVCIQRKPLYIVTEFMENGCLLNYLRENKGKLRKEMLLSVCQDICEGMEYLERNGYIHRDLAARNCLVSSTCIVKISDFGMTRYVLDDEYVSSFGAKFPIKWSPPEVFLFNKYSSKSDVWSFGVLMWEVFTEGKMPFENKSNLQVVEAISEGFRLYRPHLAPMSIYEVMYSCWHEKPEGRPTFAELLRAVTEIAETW
The test is described as follows: Inhibition of TXK (unknown origin).

Test [3] addresses T3, Tyrosine-protein kinase Lck (Homo sapiens, UniProt P06239). The experiment in a line: Inhibition of LCK (unknown origin) using tamra-p34cdc-derived peptide as substrate after 30 mins.
A further test has as its system PBMC. The experiment in a line: Inhibition of cytostim-induced IFNgamma production in human PBMC treated 1 hr before cytostim stimulation measured after 18 hrs by MSD assay. It is filed as functional, cell-based.
Test [4] deals with T4, Cytoplasmic tyrosine-protein kinase BMX (Homo sapiens, UniProt P51813).
T4 sequence (P51813 whole entry): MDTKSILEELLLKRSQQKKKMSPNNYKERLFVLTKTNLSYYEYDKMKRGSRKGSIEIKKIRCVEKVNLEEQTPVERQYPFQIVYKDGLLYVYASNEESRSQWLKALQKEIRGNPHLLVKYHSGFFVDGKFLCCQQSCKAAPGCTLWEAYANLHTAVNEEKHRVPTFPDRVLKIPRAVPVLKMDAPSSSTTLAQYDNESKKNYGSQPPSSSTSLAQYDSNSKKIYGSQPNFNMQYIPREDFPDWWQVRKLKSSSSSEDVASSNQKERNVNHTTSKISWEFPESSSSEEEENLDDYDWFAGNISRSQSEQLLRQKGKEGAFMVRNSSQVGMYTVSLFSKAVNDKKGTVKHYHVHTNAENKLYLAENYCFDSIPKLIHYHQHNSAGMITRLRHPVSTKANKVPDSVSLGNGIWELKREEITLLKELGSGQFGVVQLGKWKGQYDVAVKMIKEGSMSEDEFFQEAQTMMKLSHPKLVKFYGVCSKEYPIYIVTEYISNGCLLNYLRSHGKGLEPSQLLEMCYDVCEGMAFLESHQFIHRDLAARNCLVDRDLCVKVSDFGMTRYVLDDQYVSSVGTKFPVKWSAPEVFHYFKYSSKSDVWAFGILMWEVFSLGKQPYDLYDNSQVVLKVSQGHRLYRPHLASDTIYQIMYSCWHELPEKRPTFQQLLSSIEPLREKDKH
The test is described as follows: Inhibition of Bmx (unknown origin).

For test [5], the target named is Tyrosine-protein kinase BTK (Homo sapiens, UniProt Q06187). The experiment in a line: Inhibition of Btk (unknown origin).
Tyrosine-protein kinase BTK, sequence (Q06187 whole entry): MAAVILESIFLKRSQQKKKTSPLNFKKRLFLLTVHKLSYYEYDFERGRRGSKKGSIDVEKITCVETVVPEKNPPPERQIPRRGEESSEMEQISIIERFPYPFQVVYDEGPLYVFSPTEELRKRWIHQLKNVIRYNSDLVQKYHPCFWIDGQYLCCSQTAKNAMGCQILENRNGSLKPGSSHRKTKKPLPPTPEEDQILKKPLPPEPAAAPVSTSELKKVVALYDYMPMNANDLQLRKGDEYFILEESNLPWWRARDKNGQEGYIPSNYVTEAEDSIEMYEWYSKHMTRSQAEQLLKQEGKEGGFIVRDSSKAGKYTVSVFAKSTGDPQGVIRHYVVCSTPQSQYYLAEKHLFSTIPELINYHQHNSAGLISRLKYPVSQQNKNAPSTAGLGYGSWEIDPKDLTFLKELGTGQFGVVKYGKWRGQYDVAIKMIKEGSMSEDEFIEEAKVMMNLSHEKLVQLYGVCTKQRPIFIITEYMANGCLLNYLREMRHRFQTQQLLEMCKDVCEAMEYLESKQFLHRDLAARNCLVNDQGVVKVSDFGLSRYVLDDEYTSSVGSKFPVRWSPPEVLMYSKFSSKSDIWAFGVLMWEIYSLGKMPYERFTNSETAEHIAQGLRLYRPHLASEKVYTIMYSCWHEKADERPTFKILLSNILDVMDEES
For test [6], the target named is T5, Aurora kinase B (Homo sapiens, UniProt Q96GD4). The test is described as follows: Inhibition of Aurora-B (unknown origin) using 5FAM-PKAtide as substrate after 120 mins.
T5 sequence (Q96GD4 whole entry): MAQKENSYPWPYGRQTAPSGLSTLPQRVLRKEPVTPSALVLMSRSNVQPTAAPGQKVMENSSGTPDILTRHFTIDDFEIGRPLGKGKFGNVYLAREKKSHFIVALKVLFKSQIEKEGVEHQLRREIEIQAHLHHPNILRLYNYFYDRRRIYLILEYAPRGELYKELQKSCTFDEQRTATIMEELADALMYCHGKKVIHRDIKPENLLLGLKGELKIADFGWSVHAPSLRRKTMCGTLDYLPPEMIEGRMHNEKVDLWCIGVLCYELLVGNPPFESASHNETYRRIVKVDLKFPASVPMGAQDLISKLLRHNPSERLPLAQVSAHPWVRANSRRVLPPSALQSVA
The target of test [7] is Calcium/calmodulin-dependent protein kinase kinase 2 (Homo sapiens, UniProt Q96RR4). The test is described as follows: Inhibition of CAMKK2 (unknown origin).
Calcium/calmodulin-dependent protein kinase kinase 2, sequence (Q96RR4 whole entry): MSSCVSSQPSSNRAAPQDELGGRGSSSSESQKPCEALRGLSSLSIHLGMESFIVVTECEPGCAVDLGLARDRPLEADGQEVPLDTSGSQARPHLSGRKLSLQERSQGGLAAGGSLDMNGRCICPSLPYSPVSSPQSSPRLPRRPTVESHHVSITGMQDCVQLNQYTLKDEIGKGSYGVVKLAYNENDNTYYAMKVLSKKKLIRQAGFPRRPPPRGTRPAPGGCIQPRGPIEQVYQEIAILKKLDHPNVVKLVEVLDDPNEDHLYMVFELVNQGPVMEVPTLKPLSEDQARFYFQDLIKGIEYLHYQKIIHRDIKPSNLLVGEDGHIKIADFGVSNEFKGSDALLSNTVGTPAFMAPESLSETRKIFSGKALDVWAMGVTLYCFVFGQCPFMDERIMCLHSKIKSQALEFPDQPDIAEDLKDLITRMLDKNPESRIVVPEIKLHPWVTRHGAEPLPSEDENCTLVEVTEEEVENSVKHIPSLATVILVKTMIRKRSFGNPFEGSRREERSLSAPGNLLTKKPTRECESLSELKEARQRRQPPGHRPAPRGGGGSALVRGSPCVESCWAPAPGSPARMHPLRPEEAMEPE
Test [8] addresses Epidermal growth factor receptor (Homo sapiens, UniProt P00533). The experiment in a line: Inhibition of EGFR (unknown origin).
In test [9] the target is Proto-oncogene tyrosine-protein kinase Src (Homo sapiens, UniProt P12931). The test is described as follows: Inhibition of Src (unknown origin).
For test [10], the target named is T6, Interleukin-1 receptor-associated kinase 4 (Homo sapiens, UniProt Q9NWZ3).
T6 sequence (Q9NWZ3 whole entry): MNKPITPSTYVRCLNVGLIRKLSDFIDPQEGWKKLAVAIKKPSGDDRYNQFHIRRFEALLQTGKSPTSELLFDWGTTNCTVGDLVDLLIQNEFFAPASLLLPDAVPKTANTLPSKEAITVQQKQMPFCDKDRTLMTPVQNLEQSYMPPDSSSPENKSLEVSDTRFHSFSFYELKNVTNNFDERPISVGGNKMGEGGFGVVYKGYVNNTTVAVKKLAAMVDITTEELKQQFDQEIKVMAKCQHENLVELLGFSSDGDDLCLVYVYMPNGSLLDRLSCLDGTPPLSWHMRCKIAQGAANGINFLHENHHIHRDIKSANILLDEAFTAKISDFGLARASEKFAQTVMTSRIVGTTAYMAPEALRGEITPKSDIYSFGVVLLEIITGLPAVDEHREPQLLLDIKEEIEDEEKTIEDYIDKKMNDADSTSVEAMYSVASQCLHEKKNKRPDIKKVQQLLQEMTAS
The test is described as follows: Inhibition of IRAK4 (unknown origin).

The target of another test is Insulin receptor (Homo sapiens, UniProt P06213). The test is described as follows: Inhibition of IR (unknown origin).
Insulin receptor, sequence (P06213 28-758 limits assumed): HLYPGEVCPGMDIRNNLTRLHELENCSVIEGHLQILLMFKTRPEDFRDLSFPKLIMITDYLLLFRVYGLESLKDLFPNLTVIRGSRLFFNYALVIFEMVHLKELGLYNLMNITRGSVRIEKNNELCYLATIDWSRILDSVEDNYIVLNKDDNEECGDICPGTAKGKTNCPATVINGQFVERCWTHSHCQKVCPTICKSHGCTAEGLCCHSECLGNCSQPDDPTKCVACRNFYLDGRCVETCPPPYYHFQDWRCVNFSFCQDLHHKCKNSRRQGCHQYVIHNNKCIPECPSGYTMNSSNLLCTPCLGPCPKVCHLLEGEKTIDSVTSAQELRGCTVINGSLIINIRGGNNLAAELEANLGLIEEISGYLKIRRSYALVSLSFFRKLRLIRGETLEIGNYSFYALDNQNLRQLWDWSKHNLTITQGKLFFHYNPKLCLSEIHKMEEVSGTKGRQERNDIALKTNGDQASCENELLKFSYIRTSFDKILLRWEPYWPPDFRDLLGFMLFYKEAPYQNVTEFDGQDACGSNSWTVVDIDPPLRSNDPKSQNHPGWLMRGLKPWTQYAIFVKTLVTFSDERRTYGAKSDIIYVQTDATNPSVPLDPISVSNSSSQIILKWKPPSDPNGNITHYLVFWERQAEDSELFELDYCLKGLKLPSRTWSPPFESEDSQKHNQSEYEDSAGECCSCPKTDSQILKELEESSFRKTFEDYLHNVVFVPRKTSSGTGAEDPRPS
Insulin receptor, sequence (P06213 763-1382 limits assumed): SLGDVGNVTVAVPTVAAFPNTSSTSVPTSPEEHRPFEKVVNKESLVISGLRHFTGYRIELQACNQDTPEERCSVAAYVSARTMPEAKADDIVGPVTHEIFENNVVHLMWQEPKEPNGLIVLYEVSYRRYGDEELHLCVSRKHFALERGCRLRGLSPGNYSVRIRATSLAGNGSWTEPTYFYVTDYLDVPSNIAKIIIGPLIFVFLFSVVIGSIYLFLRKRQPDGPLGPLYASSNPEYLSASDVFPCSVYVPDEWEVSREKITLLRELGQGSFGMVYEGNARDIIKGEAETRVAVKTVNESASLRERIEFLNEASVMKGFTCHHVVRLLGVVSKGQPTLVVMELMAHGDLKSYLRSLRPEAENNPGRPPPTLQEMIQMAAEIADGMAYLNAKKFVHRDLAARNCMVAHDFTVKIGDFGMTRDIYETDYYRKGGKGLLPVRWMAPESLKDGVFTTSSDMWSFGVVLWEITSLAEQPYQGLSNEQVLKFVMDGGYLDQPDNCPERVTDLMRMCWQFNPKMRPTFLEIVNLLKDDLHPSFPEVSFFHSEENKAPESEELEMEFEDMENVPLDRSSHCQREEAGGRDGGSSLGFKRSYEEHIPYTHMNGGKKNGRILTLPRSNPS
For test [11], the target named is T7, Tyrosine-protein kinase ITK/TSK (Homo sapiens, UniProt Q08881).
T7 sequence (Q08881 whole entry): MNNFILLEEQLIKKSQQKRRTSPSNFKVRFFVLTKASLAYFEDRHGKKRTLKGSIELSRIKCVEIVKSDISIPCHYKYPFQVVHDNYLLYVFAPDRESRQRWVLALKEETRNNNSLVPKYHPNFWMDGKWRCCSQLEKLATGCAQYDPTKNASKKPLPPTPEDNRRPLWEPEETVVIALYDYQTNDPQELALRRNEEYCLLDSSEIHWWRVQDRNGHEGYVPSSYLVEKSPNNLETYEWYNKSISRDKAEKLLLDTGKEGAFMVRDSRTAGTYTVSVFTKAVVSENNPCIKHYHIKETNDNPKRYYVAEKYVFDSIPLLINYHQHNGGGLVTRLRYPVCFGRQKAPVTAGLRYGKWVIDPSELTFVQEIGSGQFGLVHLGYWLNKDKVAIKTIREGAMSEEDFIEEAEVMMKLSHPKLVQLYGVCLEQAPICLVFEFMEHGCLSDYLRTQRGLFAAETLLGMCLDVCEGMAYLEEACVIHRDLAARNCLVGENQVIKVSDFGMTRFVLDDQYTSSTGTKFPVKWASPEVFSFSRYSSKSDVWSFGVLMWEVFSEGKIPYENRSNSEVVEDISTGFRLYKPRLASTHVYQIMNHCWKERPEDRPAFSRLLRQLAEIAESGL
The test is described as follows: Inhibition of recombinant human FLAG-tagged ITK using biotinylated GST-SAM68 as substrate after 30 mins.

Test [12] concerns the target T5, Aurora kinase B. The test is described as follows: Inhibition of Aurora-B (unknown origin).
Test [13] addresses T3, Tyrosine-protein kinase Lck. The test is described as follows: Inhibition of LCK (unknown origin).
The target in test [14] is Leucine-rich repeat serine/threonine-protein kinase 2 (Homo sapiens, UniProt Q5S007). The test is described as follows: Inhibition of LRRK2 (unknown origin).

T3 sequence (P06239 whole entry): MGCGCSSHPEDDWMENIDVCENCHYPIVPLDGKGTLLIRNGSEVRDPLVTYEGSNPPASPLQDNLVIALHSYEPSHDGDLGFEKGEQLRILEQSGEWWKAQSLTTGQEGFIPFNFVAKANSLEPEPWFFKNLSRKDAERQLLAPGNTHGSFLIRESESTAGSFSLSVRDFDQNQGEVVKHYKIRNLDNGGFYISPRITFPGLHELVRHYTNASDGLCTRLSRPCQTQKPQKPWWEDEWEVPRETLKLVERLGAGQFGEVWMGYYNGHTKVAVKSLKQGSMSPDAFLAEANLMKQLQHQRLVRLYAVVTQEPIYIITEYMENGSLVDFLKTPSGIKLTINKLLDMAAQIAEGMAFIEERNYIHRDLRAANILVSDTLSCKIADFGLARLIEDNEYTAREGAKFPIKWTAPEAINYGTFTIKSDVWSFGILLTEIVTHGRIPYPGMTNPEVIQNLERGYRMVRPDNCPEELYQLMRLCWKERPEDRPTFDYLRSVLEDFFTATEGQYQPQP
Epidermal growth factor receptor, sequence (P00533 whole entry): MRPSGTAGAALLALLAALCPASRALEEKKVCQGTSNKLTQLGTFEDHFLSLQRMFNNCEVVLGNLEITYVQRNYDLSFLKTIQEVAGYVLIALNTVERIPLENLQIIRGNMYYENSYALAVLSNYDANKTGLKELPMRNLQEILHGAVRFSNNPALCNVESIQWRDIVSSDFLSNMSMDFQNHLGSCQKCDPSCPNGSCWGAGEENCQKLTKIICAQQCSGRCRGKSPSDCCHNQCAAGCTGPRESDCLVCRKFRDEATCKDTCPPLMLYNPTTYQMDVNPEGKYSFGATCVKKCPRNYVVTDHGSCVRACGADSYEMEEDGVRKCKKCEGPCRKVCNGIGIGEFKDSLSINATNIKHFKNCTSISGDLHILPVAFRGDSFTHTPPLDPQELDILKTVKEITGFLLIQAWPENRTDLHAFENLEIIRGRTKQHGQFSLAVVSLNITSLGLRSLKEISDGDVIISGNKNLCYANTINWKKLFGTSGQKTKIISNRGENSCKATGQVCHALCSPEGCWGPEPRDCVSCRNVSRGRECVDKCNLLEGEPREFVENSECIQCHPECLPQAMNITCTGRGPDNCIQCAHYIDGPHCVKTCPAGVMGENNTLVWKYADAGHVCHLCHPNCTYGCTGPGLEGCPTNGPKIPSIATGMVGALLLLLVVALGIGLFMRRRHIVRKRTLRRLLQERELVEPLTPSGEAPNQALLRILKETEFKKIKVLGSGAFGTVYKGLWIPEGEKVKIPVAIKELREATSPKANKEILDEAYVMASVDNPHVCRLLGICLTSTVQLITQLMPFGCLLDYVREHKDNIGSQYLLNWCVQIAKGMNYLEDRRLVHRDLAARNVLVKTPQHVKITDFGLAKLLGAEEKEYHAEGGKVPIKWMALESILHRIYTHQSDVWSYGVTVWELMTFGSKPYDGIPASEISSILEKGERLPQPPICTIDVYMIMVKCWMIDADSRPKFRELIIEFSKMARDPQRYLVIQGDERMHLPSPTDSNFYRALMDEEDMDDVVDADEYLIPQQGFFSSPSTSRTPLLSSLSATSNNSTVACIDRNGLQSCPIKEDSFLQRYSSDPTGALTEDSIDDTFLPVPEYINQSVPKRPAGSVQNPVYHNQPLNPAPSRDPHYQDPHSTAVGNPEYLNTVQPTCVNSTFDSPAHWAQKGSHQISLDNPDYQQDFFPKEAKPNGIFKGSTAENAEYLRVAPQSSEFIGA

Take `CCc1ccc2nc(Nc3cc(Cc4ccccc4)nc(N[C@H]4CC[C@H](O)CC4)n3)sc2c1`: the IC50 in test [1] is 251 nM; in [2], 79.4 nM; in the test with PBMC, 50.1 nM; in test [4] it was 158 nM; in [5], 316 nM; in test [7], 200 nM. Besides, the IC50 in test [8] is 631 nM; in [9] it was 39.8 nM; in [10] it was 3.98 nM; on Insulin receptor, 158 nM; at Aurora kinase B [12] it was 398 nM; in test [13], 126 nM. In test [14], the midpoint of inhibition, the IC50, lay at 398 nM. Moreover, the Ki in test [3] is 100 nM; at Aurora kinase B [6], 398 nM; in test [11], 0.631 nM.
